Literature values in US20110082545A1, “DRUG ELUTING BREAST IMPLANT COVER OR COATING” (LIPOSE CORPORATION, priority 2009, published 2011).

Tested on: capsular contracture
Conditions: administered orally

COc1cc(C(=O)NS(=O)(=O)c2ccccc2C)ccc1Cc1cn(C)c2ccc(NC(=O)OC3CCCC3)cc12 [zafirlukast]
ability to moderate the capsular contracture: demonstrated the ability to moderate the capsular contracture
